Consider seven compounds from patent US12545672B2, “Antibiotic compounds, methods of manufacturing the same, pharmaceutical compositions containing the same and uses thereof” (Debiopharm International S.A., priority 2018, dated 2026).

Structures are written as SMILES. pIC50: −log10 of the molar value. Like-named read-outs stand apart in the source and are kept apart here. A value given as a limit tells only on which side of the number the result lay.

Series [1] can be described thus: Mouse cassette PK and oral bioavailability determination. It counts as in vivo, Female BALB/c mice. The conditions noted are these: female, BALB/c, mouse, plasma; iv 1 mg/kg, po 2 mg/kg, cassette dosing; read-out: Mouse F (%). As for the experimental part:
Dose volumes were 5 ml/kg and 10 ml/kg for IV and oral administration, respectively. Compounds were co-formulated in a 10% DMSO (v/v) and 40% Captisol (w/v) in saline solution formulation (up to 3 compounds in a cassette). […] Tmax, Cmax, AUC, clearance, volume of distribution and oral bioavailability were estimated from the plasma concentrations using non-compartmental pharmacokinetic models. In particular, oral bioavailability (F %) was defined as F=(Doseiv*AUCpo)/(Dosepo*AUCiv)*100

Series [2] has as its target Neisseria gonorrhoeae FabI (Neisseria gonorrhoeae, UniProt A0ACH0F547). Briefly: Neisseria gonorrhoeae FabI inhibition assay (NADH consumption).
Experimental: Neisseria gonorrhoeae FabI Inhibition Assay:
Inhibition of Neisseria gonorrhoeae FabI enzyme activity was tested by measuring the rate of NADH consumption (Δabsorbance at 340 nm/min) at 30° C. in 96-well plate format using an automated plate reader in the presence or absence of the test compounds. […] This dose-response inhibitory assay was performed using an 11-point, serial dilution series for each test compound. IC50 values for each test compound were assigned from logistical sigmoid curve-fitting of the inhibition dose response curves.
Series [3] relates to Neisseria gonorrhoeae. The experiment in a line: MIC50 by CLSI agar dilution on a panel of N. gonorrhoeae clinical isolates. The conditions noted are these: Neisseria gonorrhoeae. It counts as cell-based. The procedure: MIC50: MICs were determined in accordance with the appropriate Clinical and Laboratory Standards Institute (CLSI) methodology by the agar dilution susceptbility testing method in GC agar base.
Background: In agar dilution, organisms are placed on agar that contains the substance at set levels.

Series [4] can be described thus: Prediction of hepatic extraction ratio from liver microsome stability. The format is in vitro ADME. The conditions noted are these: human liver microsomes, Well-Stirred model.
Experimental: In short, the study compounds were incubated with liver microsomes supplemented with cofactors (1 mM NADPH, 1 mM UDPGA+15 mM alamethicin). At selected time points, the assays were quenched using an equal volume of cold acetonitrile and samples were analyzed by UPLC/HR-MS to monitor disappearance rate of the compounds. […] With the use of species-specific physiologically-based scaling factors (PBSF) and the Well-Stirred model of hepatic clearance as modified by Poulin et al, Journal of Pharmaceutical Sciences, vol. […] 11, November 2012, the in vitro CLint was further transformed into in vivo CLint and to hepatic extraction ratio (ER) for both mouse and human.
The target of series [5] is Chlamydia trachomatis FabI (Chlamydia trachomatis serovar D (strain ATCC VR-885 / DSM 19411 / UW-3/Cx), UniProt O84106). Briefly: Chlamydia trachomatis FabI inhibition assay (NADH consumption). The conditions noted are these: read-out: CT FABI IC50; recombinant C. trachomatis FabI, 30° C., pH 7.0.
Chlamydia trachomatis FabI, sequence (O84106 1-298): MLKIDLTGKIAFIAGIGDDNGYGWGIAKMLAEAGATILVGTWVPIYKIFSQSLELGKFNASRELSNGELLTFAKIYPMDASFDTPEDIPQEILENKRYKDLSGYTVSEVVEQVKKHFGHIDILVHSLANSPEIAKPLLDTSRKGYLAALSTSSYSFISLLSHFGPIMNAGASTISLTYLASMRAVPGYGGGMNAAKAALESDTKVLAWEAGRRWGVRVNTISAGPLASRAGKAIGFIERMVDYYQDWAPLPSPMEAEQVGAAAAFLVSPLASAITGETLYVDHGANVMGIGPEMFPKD
Experimental: Example 65 Chlamydia trachomatis FabI Inhibition Assay
Inhibition of Chlamydia trachomatis FabI enzyme activity was tested by measuring the rate of NADH consumption (Δabsorbance at 340 nm/min) at 30° C. in 96-well plate format using an automated plate reader in the presence or absence of the test compounds. […] This dose-response inhibitory assay was performed using an 11-point, serial dilution series for each test compound. IC50 values for each test compound were assigned from logistical sigmoid curve-fitting of the inhibition dose response curves.
Where [6] appears, read: agar dilution, GC agar base, minimum of 15 clinical isolates, read-out: MIC50.

Neisseria gonorrhoeae FabI, sequence (A0ACH0F547 1-261): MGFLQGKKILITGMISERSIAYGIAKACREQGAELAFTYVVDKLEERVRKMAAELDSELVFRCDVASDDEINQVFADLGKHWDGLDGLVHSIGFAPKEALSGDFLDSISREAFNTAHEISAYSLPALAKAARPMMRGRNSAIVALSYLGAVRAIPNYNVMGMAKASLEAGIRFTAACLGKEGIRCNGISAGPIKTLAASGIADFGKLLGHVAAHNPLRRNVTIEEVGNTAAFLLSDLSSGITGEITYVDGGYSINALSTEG

As to `Cc1oc2c(Oc3ccc(C#N)cc3)cccc2c1CN(C)C(=O)/C=C/c1cnc2c(c1)NCCC(=O)N2` [Compound 80, (E)-N-((7-(4-cyanophenoxy)-2-methylbenzofuran-3-yl)methyl)-N-methyl-3-(4-oxo-2,3,4,5-tetrahydro-1H-pyrido[2,3-b][1,4]diazepin-8-yl)acrylamide], the bioavailability in series [1] is 35%. The pIC50 (in general, the IC50 on a negative log10 scale, so that one unit is a factor of ten) in series [2] is more than 8.00. Besides, in series [3], the MIC50 – broadly, an inhibitory concentration at the 50% level, which refers to growth in some studies and to a panel of isolates in others – is less than 1 µg/mL. In series [4], the “Predict Human hep ER” value was 0.25.

With `COc1cccc(Oc2cccc3c(CN(C)C(=O)/C=C/c4cnc5c(c4)NCCC(=O)N5)c(C)oc23)c1` [Compound 155, (E)-N-((7-(3-methoxyphenoxy)-2-methylbenzofuran-3-yl)methyl)-N-methyl-3-(4-oxo-2,3,4,5-tetrahydro-1H-pyrido[2,3-b][1,4]diazepin-8-yl)acrylamide], the bioavailability in series [1] was 28%. Moreover, the results for the pIC50 in series [2] and in series [5] were more than 8.00 and more than 6.00, respectively. Besides, the MIC50 in series [3] (setting [6]) was less than 1 µg/mL. The “Predict Human hep ER” value in series [4] is listed as 0.32.

`COc1cc(Oc2ccc(C3=C[C@H]4CN(C(=O)/C=C/c5cnc6c(c5)NCCC(=O)N6)C[C@H]4C3)cc2)ccc1C#N` [Compound 140, 2-methoxy-4-(4-((3rS,6rR)-2-((E)-3-(4-oxo-2,3,4,5-tetrahydro-1H-pyrido[2,3-b][1,4]diazepin-8-yl)acryloyl)-1,2,3,3r,4,6r-hexahydrocyclopenta[c]pyrrol-5-yl)phenoxy)benzonitrile]: in series [1], the bioavailability turned out to be 13%. This compound also gave a pIC50 in series [2] of more than 8.00. Moreover, in series [3] (setting [6]), the MIC50 is less than 1 µg/mL. Also, the “Predict Human hep ER” value in series [4] is reported as 0.13.

Turning to `COc1cccc(Oc2ccc(C3=C[C@H]4CN(C(=O)/C=C/c5cnc6c(c5)NCCC(=O)N6)C[C@H]4C3)cc2)c1` [Compound 129, 8-((E)-3-((3rS,6rR)-5-(4-(3-methoxyphenoxy)phenyl)-3,3r,4,6r-tetrahydrocyclopenta[c]pyrrol-2(1H)-yl)-3-oxoprop-1-en-1-yl)-1,2,3,5-tetrahydro-4H-pyrido[2,3-b][1,4]diazepin-4-one], the bioavailability in series [1] worked out at 26%. The pIC50 in series [2] was more than 8.00. Further, the MIC50 in series [3] (setting [6]) is less than 1 µg/mL. The “Predict Human hep ER” value in series [4] is recorded as 0.02.

Turning to `Cc1c(CN(C)C(=O)/C=C/c2cnc3c(c2)NC[C@H](O)C(=O)N3)oc2cccc(N)c12` [Compound 275, (E)-N-[(4-Amino-3-methyl-benzofuran-2-yl)methyl]-3-[(3S)-3-hydroxy-4-oxo-1,2,3,5-tetrahydropyrido[2,3-b][1,4]diazepin-8-yl]-N-methyl-prop-2-enamide], the bioavailability in series [1] came out at 51%. Moreover, the results for the pIC50 in series [2] and in series [5] were more than 8.00 and more than 5.30, respectively. The MIC50 in series [3] (setting [6]) was less than 1 µg/mL.

On to `Cc1oc2c(Oc3ccc4c(c3)N(C)CC4)cccc2c1CN(C)C(=O)/C=C/c1cnc2c(c1)NCCC(=O)N2` [Compound 134, (E)-N-Methyl-N-((2-methyl-7-((1-methylindolin-6-yl)oxy)benzofuran-3-yl)methyl)-3-(4-oxo-2,3,4,5-tetrahydro-1H-pyrido[2,3-b][1,4]diazepin-8-yl)acrylamide], for which the bioavailability in series [1] turned out to be 9%. The pIC50 in series [2] was more than 8.00. The MIC50 in series [3] (setting [6]) was less than 1 µg/mL. Besides, the “Predict Human hep ER” value in series [4] is 0.43.

In the case of `O=C1CCNc2cc(/C=C/C(=O)N3C[C@H]4CC(c5ccc(Oc6cncs6)cc5)=C[C@H]4C3)cnc2N1` [Compound 96, 8-((E)-3-Oxo-3-((3aS,6aR)-5-(4-(thiazol-5-yloxy)phenyl)-3,3a,4,6a-tetrahydrocyclopenta[c]pyrrol-2(1H)-yl)prop-1-en-1-yl)-1,2,3,5-tetrahydro-4H-pyrido[2,3-b][1,4]diazepin-4-one], the bioavailability in series [1] is 16%. In series [2], the pIC50 is more than 8.00. Besides, the MIC50 in series [3] (setting [6]) was less than 1 µg/mL. For the same compound, the “Predict Human hep ER” value in series [4] is given as 0.2.
